Biological target: T1, ATP-binding cassette subfamily G member 2 (ABCG2) (Homo sapiens, UniProt Q9UNQ0)
T1 sequence (Q9UNQ0 1-655): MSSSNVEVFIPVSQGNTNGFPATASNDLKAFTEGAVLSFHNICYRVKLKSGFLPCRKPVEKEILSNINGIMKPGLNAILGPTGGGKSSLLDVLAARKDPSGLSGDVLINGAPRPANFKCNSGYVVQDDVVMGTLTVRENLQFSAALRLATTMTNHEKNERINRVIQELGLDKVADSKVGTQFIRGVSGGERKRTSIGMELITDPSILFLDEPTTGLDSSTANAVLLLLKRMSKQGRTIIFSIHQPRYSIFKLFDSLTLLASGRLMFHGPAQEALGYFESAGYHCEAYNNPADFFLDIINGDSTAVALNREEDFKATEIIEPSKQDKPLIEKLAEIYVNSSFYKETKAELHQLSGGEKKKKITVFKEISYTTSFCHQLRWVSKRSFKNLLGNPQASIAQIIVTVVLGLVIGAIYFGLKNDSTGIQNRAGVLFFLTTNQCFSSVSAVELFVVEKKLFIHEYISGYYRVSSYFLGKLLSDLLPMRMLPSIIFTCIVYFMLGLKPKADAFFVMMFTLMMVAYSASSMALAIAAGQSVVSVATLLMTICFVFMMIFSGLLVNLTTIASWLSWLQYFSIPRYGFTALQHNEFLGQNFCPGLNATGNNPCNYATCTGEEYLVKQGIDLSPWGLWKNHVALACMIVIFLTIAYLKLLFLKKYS
Assay: competition of […]-IAAP photoaffinity labeling in crude membranes

Compound: C=CC(=O)Nc1cccc(Nc2nc(Nc3ccc(N4CCN(C(C)=O)CC4)cc3OC)ncc2C(F)(F)F)c1 [rociletinib]
- competition of [125I]-IAAP photoaffinity labeling in crude membranes; also vanad: ~ 5 μmol/L

From PMC7280144 (Acta Pharmaceutica Sinica. B, 2020)
